This is an account of results in patent publication US10766869B2, “Triazoles for the treatment of demyelinating dieases” (Vertex Pharmaceuticals Incorporated, priority 2015, dated 2020).

This assay deals with primary rat mixed cortical cells. The experiment in a line: In vitro myelination assay (MBP positive myelin strands, fold myelin pixels above background). The format is cell-based. The following applies: Rattus norvegicus; for fold induction at 1 µM: 1.0 μM compound; for fold induction at 10 µM: 10.0 μM compound. An outline of the steps: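 Read-out is total MBP-positive myelin strand pixels per well, detected by custom ridge-tracing software and reported as fold over untreated baseline. Primary P1 rat mixed cortical cells received compound (1.0 or 10.0 μM) for 14 days, with medium half-replaced on days 6 and 10. Standard deviation was taken across all replicates.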

Where [1] appears, read: relative to baseline of no added compound, read-out: Fold myelin pixels above background.
Where [2] appears, read: read-out: Fold myelin pixels above background relative to baseline of no added compound.
Setting [3] is: relative to baseline of no added compound, read-out: Fold myelin pixels above background, 1.0 μM.
Setting [4] is: relative to baseline of no added compound, read-out: Fold myelin pixels above background, 10.0 μM.

Read-outs that look alike come from different tables or passages of the source. Where only a bound is given, the exact number is not on record here.

Turning to `Cc1cc(Nc2ncn(-c3ccccc3)n2)cc(N2CC(C)N(C)CC2C)c1` (centres unmarked) [Compound 419, N-[3-methyl-5-(2,4,5-trimethylpiperazin-1-yl)phenyl]-1-phenyl-1,2,4-triazol-3-amine], under setting [1], the fold induction at 1 µM fell in the range of 10 to 100 and the fold induction at 10 µM was not above 1.
`CC1(N2CCN(c3cc(C(F)F)cc(Nc4ncn(-c5cccc(F)c5)n4)n3)CC2)COC1` [Compound 823, 4-(difluoromethyl)-N-[1-(3-fluorophenyl)-1,2,4-triazol-3-yl]-6-[4-(3-methyloxetan-3-yl)piperazin-1-yl]pyridin-2-amine]: under setting [2], the fold induction at 1 µM was 10 to 100 and the fold induction at 10 µM lay within 10 to 100.
On to `Cc1cc(Nc2ncn(-c3cc(F)cc(F)c3)n2)cc(C2CCNCC2)c1` [Compound 108, 1-(3,5-difluorophenyl)-N-[3-methyl-5-(4-piperidyl)phenyl]-1,2,4-triazol-3-amine], for which, under setting [3], the fold induction at 1 µM was 10 to 100. In addition, under setting [4], the fold induction at 10 µM is not above 1.
For the molecule `Cc1cc(Nc2ccn(C)n2)cc(Nc2ncn(-c3ccccc3)n2)c1` [Compound 828, 5-methyl-N3-(1-methylpyrazol-3-yl)-N1-(1-phenyl-1,2,4-triazol-3-yl)benzene-1,3-diamine], under setting [2], the fold induction at 1 µM is 1 to 10 and the fold induction at 10 µM was not above 1.
For `Cc1cc(Nc2ncn(-c3cccc(C#N)c3)n2)cc(N2CCN(C3COC3)CC2)c1` [Compound 759, 3-[3-[3-methyl-5-[4-(oxetan-3-yl)piperazin-1-yl]anilino]-1,2,4-triazol-1-yl]benzonitrile], under setting [1], the fold induction at 1 µM was in the range of 1 to 10 and the fold induction at 10 µM lay in the range of 1 to 10.
`Cc1cc(Nc2ncn(-c3cc(F)cc(F)c3)n2)nc(N2CC3CCOC3C2)c1` (centres unmarked) [Compound 843, 6-(2,3,3a,4,6,6a-hexahydrofuro[2,3-c]pyrrol-5-yl)-N-[1-(3,5-difluorophenyl)-1,2,4-triazol-3-yl]-4-methyl-pyridin-2-amine]: under setting [2], the fold induction at 1 µM was 1 to 10 and the fold induction at 10 µM lay in the range of 1 to 10.
As for `Cc1cc(Nc2ncn(-c3cc(F)cc(F)c3)n2)cc(N2CCN(CCN3CCCC3)CC2)c1` [Compound 944, 1-(3,5-difluorophenyl)-N-[3-methyl-5-[4-(2-pyrrolidin-1-ylethyl)piperazin-1-yl]phenyl]-1,2,4-triazol-3-amine], under setting [2], the fold induction at 1 µM was 1 to 10 and the fold induction at 10 µM is not above 1.
Regarding `N#Cc1cc(Nc2ncn(-c3cc(F)cc(F)c3)n2)cc(N2CCN(C3COC3)CC2)c1` [Compound 678, 3-[[1-(3,5-difluorophenyl)-1,2,4-triazol-3-yl]amino]-5-[4-(oxetan-3-yl)piperazin-1-yl]benzonitrile], under setting [1], the fold induction at 1 µM lay within 10 to 100 and the fold induction at 10 µM lay in the range of 1 to 10.
With `Cc1cc(F)cc(-n2cnc(Nc3cc(C4CC4)cc(N4CCN(C5COC5)CC4)c3)n2)c1` [Compound 73, N-[3-cyclopropyl-5-[4-(oxetan-3-yl)piperazin-1-yl]phenyl]-1-(3-fluoro-5-methyl-phenyl)-1,2,4-triazol-3-amine], under setting [3], the fold induction at 1 µM lay within 100 to 1000. The fold induction at 10 µM under setting [4] is not above 1.
On to `Cc1cc(Nc2ncn(-c3cccnc3)n2)cc(N2CCN(C3(C)COC3)CC2)c1` [Compound 585, N-[3-methyl-5-[4-(3-methyloxetan-3-yl)piperazin-1-yl]phenyl]-1-(3-pyridyl)-1,2,4-triazol-3-amine], for which, under setting [1], the fold induction at 1 µM was in the range of 10 to 100 and the fold induction at 10 µM is 1 to 10.
The matching figures for `Fc1cccc(-n2cnc(Nc3cc(C(F)(F)F)cc(N4CCN(C5COC5)CC4)n3)n2)c1` [Compound 545, N-[1-(3-fluorophenyl)-1,2,4-triazol-3-yl]-6-[4-(oxetan-3-yl)piperazin-1-yl]-4-(trifluoromethyl)pyridin-2-amine]: 10 to 100 and 10 to 100.
On to `CCC(CN1CCOCC1)Nc1cc(C)cc(Nc2ncn(-c3cc(F)cc(F)c3)n2)c1` (centres unmarked) [Compound 960, N3-[1-(3,5-difluorophenyl)-1,2,4-triazol-3-yl]-5-methyl-N1-[1-(morpholinomethyl)propyl]benzene-1,3-diamine], for which, under setting [2], the fold induction at 1 µM fell in the range of 1 to 10 and the fold induction at 10 µM was not above 1.
`Cc1cc(Nc2ncn(-c3ccc(F)c(F)c3)n2)cc(O[C@@H]2CCN(C3COC3)C2)c1` [Compound 46, 1-(3,4-difluorophenyl)-N-[3-methyl-5-[(3R)-1-(oxetan-3-yl)pyrrolidin-3-yl]oxy-phenyl]-1,2,4-triazol-3-amine]: the fold induction at 1 µM under setting [3] lay in the range of 1000 to 10000. Also, the fold induction at 10 µM under setting [4] was in the range of 1 to 10.
As for `Cc1cc(Nc2ncn(-c3cccc(F)c3)n2)cc(C2CCCN(C3COC3)C2)c1` (centres unmarked) [Compound 411, 1-(3-fluorophenyl)-N-[3-methyl-5-[1-(oxetan-3-yl)-3-piperidyl]phenyl]-1,2,4-triazol-3-amine], under setting [1], the fold induction at 1 µM is 100 to 1000 and the fold induction at 10 µM was not above 1.
Take `c1ccc(-n2cnc(Nc3cc(N4CCOCC4)nc(N4CCOCC4)c3)n2)cc1` [Compound 319, 2,6-dimorpholino-N-(1-phenyl-1,2,4-triazol-3-yl)pyridin-4-amine]: the fold induction at 1 µM under setting [3] was in the range of 1 to 10. Also, the fold induction at 10 µM under setting [4] was not above 1.
With `Cc1cc(Nc2ncn(-c3ccc(OC(F)(F)F)cc3)n2)cc(N2CCN(C3COC3)CC2)c1` [Compound 478, N-[3-methyl-5-[4-(oxetan-3-yl)piperazin-1-yl]phenyl]-1-[4-(trifluoromethoxy)phenyl]-1,2,4-triazol-3-amine], under setting [1], the fold induction at 1 µM is 1 to 10 and the fold induction at 10 µM lay within 1 to 10.
Consider `c1cnc(-n2cnc(Nc3cc(C4CC4)cc(N4CC(N5CCOCC5)C4)c3)n2)cn1` [Compound 539, N-[3-cyclopropyl-5-(3-morpholinoazetidin-1-yl)phenyl]-1-pyrazin-2-yl-1,2,4-triazol-3-amine], for which, under setting [1], the fold induction at 1 µM lay in the range of 10 to 100 and the fold induction at 10 µM lay in the range of 10 to 100.
As to `Cc1cc(Nc2ncn(-c3cc(F)cc(F)c3)n2)cc(NC(C)C2CC2)c1` (centres unmarked) [Compound 1059, N1-(1-cyclopropylethyl)-N3-[1-(3,5-difluorophenyl)-1,2,4-triazol-3-yl]-5-methyl-benzene-1,3-diamine], under setting [2], the fold induction at 1 µM lay in the range of 10 to 100 and the fold induction at 10 µM was not above 1.
Take `Cc1cc(Nc2ncn(-c3cc(C)nc(C)n3)n2)cc(N2CCN(C3COC3)CC2)c1` [Compound 312, 1-(2,6-dimethylpyrimidin-4-yl)-N-[3-methyl-5-[4-(oxetan-3-yl)piperazin-1-yl]phenyl]-1,2,4-triazol-3-amine]: the fold induction at 1 µM under setting [3] was in the range of 1 to 10. The fold induction at 10 µM under setting [4] was in the range of 1 to 10.
As for `Fc1cc(Nc2ncn(-c3cccc(F)c3)n2)cc(NC2CNC2)c1` [Compound 351, N1-(azetidin-3-yl)-5-fluoro-N3-[1-(3-fluorophenyl)-1,2,4-triazol-3-yl]benzene-1,3-diamine], under setting [3], the fold induction at 1 µM fell in the range of 10 to 100. The fold induction at 10 µM under setting [4] is not above 1.
Take `Cc1cc(Nc2ncn(-c3cc(F)cc(F)c3)n2)cc(N2C[C@H]3C[C@@H]2CO3)c1` [Compound 628, 1-(3,5-difluorophenyl)-N-[3-methyl-5-[(1R,4R)-2-oxa-5-azabicyclo[2.2.1]heptan-5-yl]phenyl]-1,2,4-triazol-3-amine]: under setting [1], the fold induction at 1 µM lay within 10 to 100 and the fold induction at 10 µM was in the range of 1 to 10.
On to `Cc1cc(Nc2ncn(-c3cc(F)cc(F)c3)n2)cc(N2CCC(N3CCOCC3)C2)c1` (centres unmarked) [Compound 284, 1-(3,5-difluorophenyl)-N-[3-methyl-5-(3-morpholinopyrrolidin-1-yl)phenyl]-1,2,4-triazol-3-amine], for which the fold induction at 1 µM under setting [3] is 1 to 10. Further, under setting [4], the fold induction at 10 µM fell in the range of 1 to 10.
Take `Cc1cc(Nc2ncn(-c3ccccc3C#N)n2)cc(N2CCCC2)c1` [Compound 212, 2-[3-(3-methyl-5-pyrrolidin-1-yl-anilino)-1,2,4-triazol-1-yl]benzonitrile]: the fold induction at 1 µM under setting [3] is not above 1. Besides, the fold induction at 10 µM under setting [4] is not above 1.
With `CN1CCCN(c2cc(F)cc(Nc3ncn(-c4ccc(F)cc4F)n3)c2)CC1` [Compound 28, 1-(2,4-difluorophenyl)-N-[3-fluoro-5-(4-methyl-1,4-diazepan-1-yl)phenyl]-1,2,4-triazol-3-amine], the fold induction at 1 µM under setting [3] is not above 1. In addition, the fold induction at 10 µM under setting [4] was not above 1.
For the molecule `Cc1cc(Nc2ncn(-c3cc(F)cc(F)c3)n2)cc(N2C[C@@H]3C[C@H]2CN3C2CC2)c1` [Compound 78, N-[3-[(1S,4S)-2-cyclopropyl-2,5-diazabicyclo[2.2.1]heptan-5-yl]-5-methyl-phenyl]-1-(3,5-difluorophenyl)-1,2,4-triazol-3-amine], the fold induction at 1 µM under setting [3] fell in the range of 100 to 1000. The fold induction at 10 µM under setting [4] is not above 1.
For `Cc1cc(Nc2ncn(-c3cc(F)cc(F)c3)n2)cc(C2CCN(C3COC3)CC2)c1` [Compound 221, 1-(3,5-difluorophenyl)-N-[3-methyl-5-[1-(oxetan-3-yl)-4-piperidyl]phenyl]-1,2,4-triazol-3-amine], the fold induction at 1 µM under setting [3] lay within 1 to 10. The fold induction at 10 µM under setting [4] fell in the range of 100 to 1000.
For `Cc1cc(Nc2ncn(-c3cc(F)cc(F)c3)n2)cc(N2CCCN(C3COC3)CC2)c1` [Compound 637, 1-(3,5-difluorophenyl)-N-[3-methyl-5-[4-(oxetan-3-yl)-1,4-diazepan-1-yl]phenyl]-1,2,4-triazol-3-amine], under setting [1], the fold induction at 1 µM fell in the range of 100 to 1000 and the fold induction at 10 µM is not above 1.
Regarding `Fc1cc(Nc2ncn(-c3cncc(F)c3)n2)cc(N2CCOCC2)c1` [Compound 371, N-(3-fluoro-5-morpholino-phenyl)-1-(5-fluoro-3-pyridyl)-1,2,4-triazol-3-amine], the fold induction at 1 µM under setting [3] lay within 1 to 10. Further, the fold induction at 10 µM under setting [4] lay in the range of 100 to 1000.
